Values after ≈ are worked out from the molar mass of the structure shown. “Also recorded” adds a separate entry of the source. Some results are limits rather than exact numbers.

One series relates to HT22 cells. Briefly: HT22 cell culture assay, glutamate-induced cell death. It is filed as cell-based, mouse.
For series [1], the target named is T1, human platelet 12-lipoxygenase (12-LOX) (Homo sapiens, UniProt P18054).
T1 sequence (P18054 1-663): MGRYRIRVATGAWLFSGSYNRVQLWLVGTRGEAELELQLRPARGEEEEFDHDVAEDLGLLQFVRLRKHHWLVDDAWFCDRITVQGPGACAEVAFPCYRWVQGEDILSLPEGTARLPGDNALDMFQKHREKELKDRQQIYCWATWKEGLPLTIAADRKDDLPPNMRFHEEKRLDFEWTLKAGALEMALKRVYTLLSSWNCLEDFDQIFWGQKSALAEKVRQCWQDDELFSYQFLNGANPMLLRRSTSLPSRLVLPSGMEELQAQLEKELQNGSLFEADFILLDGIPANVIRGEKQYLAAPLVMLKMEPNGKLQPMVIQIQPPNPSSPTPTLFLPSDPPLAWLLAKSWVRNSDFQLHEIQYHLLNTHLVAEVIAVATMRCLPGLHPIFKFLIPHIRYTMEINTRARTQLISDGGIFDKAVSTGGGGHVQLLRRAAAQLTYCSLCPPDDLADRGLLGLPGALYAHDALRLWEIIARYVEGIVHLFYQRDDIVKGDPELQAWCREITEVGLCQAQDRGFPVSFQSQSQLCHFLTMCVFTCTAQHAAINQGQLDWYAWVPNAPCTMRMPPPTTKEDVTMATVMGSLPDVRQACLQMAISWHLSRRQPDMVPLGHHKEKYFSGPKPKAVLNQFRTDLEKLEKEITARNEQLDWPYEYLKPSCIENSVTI
Briefly: Lipoxygenase UV-Vis assay, 12-LOX selectivity.

Another series has as its system human 12/15-LOX. The settings on record: read-out: 12/15-LOX IC50; cited from earlier work.
Series [2] in a line: Aqueous kinetic solubility in PBS buffer. Format: physicochemical. To be noted: pH 7.4.
Series [3] is described as follows: Microsomal stability, rat. It is filed as in vitro ADME. To be noted: rat liver microsomes, in the presence of NADPH. In general terms: Liver microsomes are vesicles of endoplasmic reticulum, rich in cytochrome P450 enzymes.
The nature of series [4]: Microsomal stability, mouse. Format: in vitro ADME. To be noted: mouse liver microsomes, in the presence of NADPH.
Series [5] in a line: Stability in aqueous solutions. It is filed as physicochemical. To be noted: pH 2, pH 7.4, pH 9.

Take `CNc1nc(C#N)c(-c2cccc3ccccc23)o1` [Compound 34]: in the series on HT22 cells (5 μM concentration, glutamate-treated), the “cellular protection in HT22 cells” value is reported as “did not protect; also recorded: does not protect”.
With `CNc1sc(-c2cccc3ccccc23)nc1C#N` [Compound 32, 5-(methylamino)-2-(naphthalen-1-yl)thiazole-4-carbonitrile], the IC50 in series [1] is > 50000 nM.
Take `C[C@H]1[C@H](C)CC[C@]2(C)CC[C@]3(C)C(=CC[C@@H]4[C@@]5(C)CC[C@@H](O)[C@](C)(C(=O)O)[C@@H]5CC[C@]43C)[C@H]12` [boswellic acid]: the IC50 in the series with human 12/15-LOX was 1000 nM.
For the compound `O=c1cc(-c2ccccc2)oc2cc(O)c(O)c(O)c12` [baicalein], in the series on human 12/15-LOX, the IC50 was 1600 nM.
Broadly, the kinetic solubility is solubility judged after dilution from a stock solution rather than from solid. Consider `CNc1oc(-c2cccc3ccccc23)nc1C#N` [Compound 1, 5-(Methylamino)-2-(naphthalen-1-yl)oxazole-4-carbonitrile], for which the “protection against oxidative glutamate toxicity” value in the series on HT22 cells (HT22 cells, 5 mM glutamate, increasing amounts of compound) is reported as “protective; also recorded: dose-dependent protection”. This compound returned a solubility (kinetic) in series [2] of 1.2 µM (≈ 0.299 µg/mL). In addition, the “Microsomal Stability T1/2” value is listed as 18 (rat) min in series [3] and 5.5 (mouse) min in series [4]. In addition, the “stability in aqueous solutions” value in series [5] was “stable”.

Values taken from paper PMC4033661 (Journal of medicinal chemistry, 2014).
